In brackets after ≈: the same amount, converted by molar mass.
Tests used:
Salmonella typhimurium [1] = assay: Mutagenic activity in Salmonella typhimurium TA1537 at 1667 ug/plate in absence of liver S9 fraction; format: toxicity, organism-based; conditions: salmonella enterica subsp. enterica serovar typhimurium
Salmonella typhimurium [2] = assay: Mutagenic activity in Salmonella typhimurium TA98 at 1667 ug/plate in absence of liver S9 fraction; format: toxicity, organism-based; conditions: salmonella enterica subsp. enterica serovar typhimurium
[3] = molecular target: Phosphatidylinositol 4,5-bisphosphate 3-kinase catalytic subunit alpha isoform (Homo sapiens, UniProt P42336); assay: Inhibition of PI3Kalpha by high throughput chemoproteomics binding assay
Salmonella typhimurium [4] = assay: Mutagenic activity in Salmonella typhimurium TA98 at 1667 ug/plate in presence of liver S9 fraction; format: toxicity, organism-based; conditions: salmonella enterica subsp. enterica serovar typhimurium
Cytochrome P450 2D6 = Cytochrome P450 2D6 (Homo sapiens, UniProt P10635); assay: Inhibition of CYP2D6 up to 25 uM; format: ADME
Sequence of Cytochrome P450 2D6 (P10635 whole entry): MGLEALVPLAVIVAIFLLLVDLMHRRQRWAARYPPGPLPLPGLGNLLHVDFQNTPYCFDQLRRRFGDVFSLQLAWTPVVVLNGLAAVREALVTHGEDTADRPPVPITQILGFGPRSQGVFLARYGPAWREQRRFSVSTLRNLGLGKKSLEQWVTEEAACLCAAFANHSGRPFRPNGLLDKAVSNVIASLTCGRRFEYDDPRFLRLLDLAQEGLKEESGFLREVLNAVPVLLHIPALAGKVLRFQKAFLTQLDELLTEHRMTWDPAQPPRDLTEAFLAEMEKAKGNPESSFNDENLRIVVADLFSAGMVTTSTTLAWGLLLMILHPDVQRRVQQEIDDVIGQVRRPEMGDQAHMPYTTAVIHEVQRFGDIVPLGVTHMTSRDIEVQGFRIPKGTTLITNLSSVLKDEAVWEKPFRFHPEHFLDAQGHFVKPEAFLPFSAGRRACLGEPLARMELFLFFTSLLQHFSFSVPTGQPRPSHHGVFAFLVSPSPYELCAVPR

Salmonella typhimurium [5] = assay: Mutagenic activity in Salmonella typhimurium TA1537 at 1667 ug/plate in presence of liver S9 fraction; format: toxicity, organism-based; conditions: salmonella enterica subsp. enterica serovar typhimurium
[6] = molecular target: Voltage-gated inwardly rectifying potassium channel KCNH2 (Homo sapiens, UniProt Q12809); assay: Inhibition of human ERG up to 100 uM by Q-patch assay
Sequence of Voltage-gated inwardly rectifying potassium channel KCNH2 (Q12809 whole entry): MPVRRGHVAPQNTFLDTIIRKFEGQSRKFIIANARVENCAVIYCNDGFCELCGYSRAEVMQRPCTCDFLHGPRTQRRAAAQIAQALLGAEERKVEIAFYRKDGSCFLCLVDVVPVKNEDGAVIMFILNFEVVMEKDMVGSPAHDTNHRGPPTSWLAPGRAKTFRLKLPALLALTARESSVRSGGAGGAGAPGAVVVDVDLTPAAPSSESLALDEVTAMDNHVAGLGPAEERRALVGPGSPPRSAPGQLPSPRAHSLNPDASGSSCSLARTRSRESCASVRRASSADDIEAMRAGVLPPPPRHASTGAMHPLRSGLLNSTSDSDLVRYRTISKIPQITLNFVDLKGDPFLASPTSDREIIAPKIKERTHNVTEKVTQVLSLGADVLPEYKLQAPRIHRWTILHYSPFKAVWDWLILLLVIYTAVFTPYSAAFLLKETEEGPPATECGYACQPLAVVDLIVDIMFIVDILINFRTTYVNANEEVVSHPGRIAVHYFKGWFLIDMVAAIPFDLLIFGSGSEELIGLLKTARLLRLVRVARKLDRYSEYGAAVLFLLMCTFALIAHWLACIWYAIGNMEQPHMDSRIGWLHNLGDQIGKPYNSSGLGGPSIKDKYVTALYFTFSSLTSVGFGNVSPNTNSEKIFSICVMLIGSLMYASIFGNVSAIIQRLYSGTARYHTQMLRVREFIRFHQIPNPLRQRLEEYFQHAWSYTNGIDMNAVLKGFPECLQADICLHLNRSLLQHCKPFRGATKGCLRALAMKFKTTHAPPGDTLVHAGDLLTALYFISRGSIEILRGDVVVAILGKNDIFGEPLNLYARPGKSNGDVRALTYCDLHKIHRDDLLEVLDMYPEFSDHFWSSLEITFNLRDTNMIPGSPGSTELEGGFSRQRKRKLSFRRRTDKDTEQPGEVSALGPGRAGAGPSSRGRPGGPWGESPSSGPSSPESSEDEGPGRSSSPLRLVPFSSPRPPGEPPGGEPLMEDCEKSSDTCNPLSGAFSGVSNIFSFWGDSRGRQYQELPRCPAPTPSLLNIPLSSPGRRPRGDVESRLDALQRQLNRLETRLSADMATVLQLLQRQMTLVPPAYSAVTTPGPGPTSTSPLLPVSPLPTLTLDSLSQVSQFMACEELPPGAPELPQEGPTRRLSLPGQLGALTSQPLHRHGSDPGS

Cytochrome P450 2C9 = Cytochrome P450 2C9 (Homo sapiens, UniProt P11712); assay: Inhibition of CYP2C9 up to 25 uM; format: ADME
Sequence of Cytochrome P450 2C9 (P11712 whole entry): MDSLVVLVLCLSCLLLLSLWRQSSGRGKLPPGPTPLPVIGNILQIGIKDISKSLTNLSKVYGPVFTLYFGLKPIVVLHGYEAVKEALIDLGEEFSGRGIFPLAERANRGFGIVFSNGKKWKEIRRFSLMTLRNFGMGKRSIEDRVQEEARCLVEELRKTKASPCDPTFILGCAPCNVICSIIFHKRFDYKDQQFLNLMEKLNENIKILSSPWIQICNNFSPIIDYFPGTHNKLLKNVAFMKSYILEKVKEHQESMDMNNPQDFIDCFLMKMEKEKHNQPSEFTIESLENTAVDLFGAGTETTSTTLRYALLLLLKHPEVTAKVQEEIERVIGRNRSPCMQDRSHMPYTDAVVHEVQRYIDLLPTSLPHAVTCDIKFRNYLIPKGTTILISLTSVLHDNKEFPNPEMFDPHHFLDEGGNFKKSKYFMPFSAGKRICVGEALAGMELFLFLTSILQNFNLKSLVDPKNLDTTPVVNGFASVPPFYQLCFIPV

Cytochrome P450 2C19 = Cytochrome P450 2C19 (Homo sapiens, UniProt P33261); assay: Inhibition of CYP2C19 up to 25 uM; format: ADME
Sequence of Cytochrome P450 2C19 (P33261 whole entry): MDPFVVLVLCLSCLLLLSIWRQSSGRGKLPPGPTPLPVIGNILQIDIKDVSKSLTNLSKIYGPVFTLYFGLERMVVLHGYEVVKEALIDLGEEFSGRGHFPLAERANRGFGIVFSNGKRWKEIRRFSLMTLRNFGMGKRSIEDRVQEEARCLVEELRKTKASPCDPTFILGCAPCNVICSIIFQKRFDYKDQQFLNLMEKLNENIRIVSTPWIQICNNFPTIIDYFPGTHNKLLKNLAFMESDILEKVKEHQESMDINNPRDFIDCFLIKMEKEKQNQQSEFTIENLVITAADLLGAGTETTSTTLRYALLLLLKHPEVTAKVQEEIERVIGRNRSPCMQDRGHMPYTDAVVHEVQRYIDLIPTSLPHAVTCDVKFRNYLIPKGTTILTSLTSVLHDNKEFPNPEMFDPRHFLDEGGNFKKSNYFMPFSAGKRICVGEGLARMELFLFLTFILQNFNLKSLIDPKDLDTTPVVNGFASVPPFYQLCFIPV

Caco-2 = assay: Permeability of the compound in human Caco2 cells; format: ADME, cell-based
[7] = Oral bioavailability in rat at 10 mg/kg; format: ADME, organism-based; conditions: in vivo
Mus musculus = assay: Antiarthritic activity in DBA/B10 mouse collagen-induced arthritis model assessed as reduction of clinical score at 10 mg/kg, po administered twice per day for every 12 hrs; format: functional; parameters: scale not given: the % may be the effect or the level left
[8] = Clearance in rat at 0.2 mg/kg, iv and 10 mg/kg, po; format: ADME, organism-based; conditions: in vivo
[9] = molecular target: Phosphatidylinositol 4,5-bisphosphate 3-kinase catalytic subunit beta isoform (Homo sapiens, UniProt P42338); assay: Inhibition of PI3Kbeta by high throughput chemoproteomics binding assay
Sequence of Phosphatidylinositol 4,5-bisphosphate 3-kinase catalytic subunit beta isoform (P42338 whole entry, canonical isoform): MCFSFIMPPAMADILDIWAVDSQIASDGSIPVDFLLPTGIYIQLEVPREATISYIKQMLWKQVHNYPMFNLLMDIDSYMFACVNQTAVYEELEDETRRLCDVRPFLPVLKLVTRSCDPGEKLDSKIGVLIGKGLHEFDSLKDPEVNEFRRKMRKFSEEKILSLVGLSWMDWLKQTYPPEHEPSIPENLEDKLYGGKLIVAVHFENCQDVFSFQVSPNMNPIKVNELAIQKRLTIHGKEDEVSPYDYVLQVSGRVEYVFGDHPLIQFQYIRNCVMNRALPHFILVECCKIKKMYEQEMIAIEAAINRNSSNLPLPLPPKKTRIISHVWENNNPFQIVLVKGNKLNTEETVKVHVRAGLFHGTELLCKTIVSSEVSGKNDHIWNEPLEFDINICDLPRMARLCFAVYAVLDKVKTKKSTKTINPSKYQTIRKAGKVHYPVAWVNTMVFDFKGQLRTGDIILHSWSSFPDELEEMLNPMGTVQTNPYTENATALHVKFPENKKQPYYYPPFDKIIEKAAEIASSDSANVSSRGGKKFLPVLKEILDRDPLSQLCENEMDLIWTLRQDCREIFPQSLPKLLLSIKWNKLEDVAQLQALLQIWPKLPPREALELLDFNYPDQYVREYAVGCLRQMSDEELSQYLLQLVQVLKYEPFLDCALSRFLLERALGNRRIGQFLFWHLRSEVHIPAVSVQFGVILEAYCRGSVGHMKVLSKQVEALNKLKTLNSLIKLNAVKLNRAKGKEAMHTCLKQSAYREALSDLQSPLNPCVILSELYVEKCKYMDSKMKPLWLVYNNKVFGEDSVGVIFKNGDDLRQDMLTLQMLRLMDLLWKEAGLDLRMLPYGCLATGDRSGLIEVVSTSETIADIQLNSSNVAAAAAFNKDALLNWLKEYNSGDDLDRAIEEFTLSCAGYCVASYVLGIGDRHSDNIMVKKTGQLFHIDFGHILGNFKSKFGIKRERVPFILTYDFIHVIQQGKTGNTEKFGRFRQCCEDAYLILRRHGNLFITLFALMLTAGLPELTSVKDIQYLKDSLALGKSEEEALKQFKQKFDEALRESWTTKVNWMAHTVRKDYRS

[10] = Thermodynamic solubility of the compound; format: physicochemical; conditions: read-out: Therm_solubility
Salmonella typhimurium [11] = assay: Mutagenic activity in Salmonella typhimurium TA100 at 1667 ug/plate in presence of liver S9 fraction; format: toxicity, organism-based; conditions: salmonella enterica subsp. enterica serovar typhimurium
Cytochrome P450 1A = molecular target: T1, Cytochrome P450 1A (Homo sapiens, UniProt P04798+P05177); assay: Inhibition of CYP1A up to 25 uM; format: ADME
T1 sequence (P04798 whole entry): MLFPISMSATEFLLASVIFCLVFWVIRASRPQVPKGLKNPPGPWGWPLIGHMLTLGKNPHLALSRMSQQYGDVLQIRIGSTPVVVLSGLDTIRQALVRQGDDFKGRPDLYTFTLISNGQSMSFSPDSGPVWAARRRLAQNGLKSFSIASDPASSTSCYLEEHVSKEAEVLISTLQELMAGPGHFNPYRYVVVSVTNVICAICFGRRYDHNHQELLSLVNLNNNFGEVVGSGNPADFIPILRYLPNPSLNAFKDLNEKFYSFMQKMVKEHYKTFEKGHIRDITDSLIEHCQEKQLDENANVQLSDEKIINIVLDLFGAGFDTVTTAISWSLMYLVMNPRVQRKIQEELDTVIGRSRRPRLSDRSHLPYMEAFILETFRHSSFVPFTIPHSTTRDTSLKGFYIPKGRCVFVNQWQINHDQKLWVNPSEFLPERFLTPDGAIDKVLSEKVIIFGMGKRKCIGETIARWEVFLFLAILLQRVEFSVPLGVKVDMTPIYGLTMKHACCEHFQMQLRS
T1 sequence (P05177 whole entry): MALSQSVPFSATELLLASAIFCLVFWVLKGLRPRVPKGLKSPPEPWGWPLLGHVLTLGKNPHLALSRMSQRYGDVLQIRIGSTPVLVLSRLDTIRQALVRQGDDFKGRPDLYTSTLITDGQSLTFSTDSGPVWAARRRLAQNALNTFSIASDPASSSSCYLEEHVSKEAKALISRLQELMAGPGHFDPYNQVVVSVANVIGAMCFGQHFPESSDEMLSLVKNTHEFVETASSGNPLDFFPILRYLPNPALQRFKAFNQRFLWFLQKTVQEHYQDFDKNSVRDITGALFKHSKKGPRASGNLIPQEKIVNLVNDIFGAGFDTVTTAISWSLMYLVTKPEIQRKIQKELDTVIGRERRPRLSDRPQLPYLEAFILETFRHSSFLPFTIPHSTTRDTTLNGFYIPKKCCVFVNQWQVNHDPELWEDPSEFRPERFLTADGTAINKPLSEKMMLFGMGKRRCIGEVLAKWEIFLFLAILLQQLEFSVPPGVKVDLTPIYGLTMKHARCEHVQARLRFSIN

Homo sapiens [12] = species: Homo sapiens; assay: Selectivity ratio of IC50 for PI3Kbeta to IC50 for PI3Kgamma
Homo sapiens [13] = species: Homo sapiens; assay: Selectivity ratio of IC50 for PI3Kdelta to IC50 for PI3Kgamma
Salmonella typhimurium [14] = assay: Mutagenic activity in Salmonella typhimurium TA100 at 1667 ug/plate in absence of liver S9 fraction; format: toxicity, organism-based; conditions: salmonella enterica subsp. enterica serovar typhimurium
Cytochrome P450 3A4 = Cytochrome P450 3A4 (Homo sapiens, UniProt P08684); assay: Inhibition of CYP3A4 up to 25 uM; format: ADME
Sequence of Cytochrome P450 3A4 (P08684 whole entry): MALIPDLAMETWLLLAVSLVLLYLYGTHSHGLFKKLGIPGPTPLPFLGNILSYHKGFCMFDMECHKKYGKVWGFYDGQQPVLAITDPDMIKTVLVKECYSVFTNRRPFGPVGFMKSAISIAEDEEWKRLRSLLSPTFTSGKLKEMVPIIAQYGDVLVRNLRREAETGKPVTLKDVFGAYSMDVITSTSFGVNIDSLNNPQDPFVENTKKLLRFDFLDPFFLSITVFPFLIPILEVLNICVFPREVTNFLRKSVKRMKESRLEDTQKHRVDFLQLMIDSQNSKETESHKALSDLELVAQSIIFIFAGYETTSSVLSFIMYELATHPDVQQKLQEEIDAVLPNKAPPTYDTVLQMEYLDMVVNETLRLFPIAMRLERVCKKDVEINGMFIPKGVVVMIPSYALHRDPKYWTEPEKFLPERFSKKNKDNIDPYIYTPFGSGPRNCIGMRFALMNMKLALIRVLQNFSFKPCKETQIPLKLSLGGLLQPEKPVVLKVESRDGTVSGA

[15] = Half life in rat microsomes; format: ADME, Microsome
[16] = Half life in human microsomes; format: ADME, Microsome
[17] = Oral bioavailability in rat at 5 mg/kg; format: ADME, organism-based; conditions: in vivo
[18] = molecular target: Phosphatidylinositol 4,5-bisphosphate 3-kinase catalytic subunit gamma isoform (Homo sapiens, UniProt P48736); assay: Inhibition of PI3Kgamma assessed as inhibition of C5a-induced AKT phosphorylation at Ser473 by cell based assay
[19] = Clearance in rat at 1 mg/kg, iv and 5 mg/kg, po; format: ADME, organism-based; conditions: in vivo
[20] = Half life in mouse microsomes; format: ADME, Microsome

Row | Compound | Activity (Salmonella typhimurium [1]) | Activity (Salmonella typhimurium [2]) | Activity (Salmonella typhimurium [4]) | inhibition (INH) (Cytochrome P450 2D6) | Activity (Salmonella typhimurium [5]) | inhibition (INH) [6] | inhibition (INH) (Cytochrome P450 2C9) | inhibition (INH) (Cytochrome P450 2C19) | permeability (Caco-2) | Activity (Mus musculus) [%] | solubility thermodynamic [10] [µg/mL] | Activity (Salmonella typhimurium [11]) | inhibition (INH) (Cytochrome P450 1A) | Activity (Salmonella typhimurium [14]) | inhibition (INH) (Cytochrome P450 3A4) | further results
1 | CC(C)(C)NS(=O)(=O)c1cncc(-c2cc(F)c3nc(N)nn3c2)c1 | Non-toxic | Non-toxic | Non-toxic | Not Active | Non-toxic | Not Active | Not Active | Not Active | permeable | 38 | < 5 | Non-toxic | Not Active | Non-toxic | Not Active | IC50 [3]: > 10000 nM; bioavailability [7]: 37%; clearance [8]: 14 mL/min/kg; IC50 [9]: 1260 nM; Ratio IC50 (Homo sapiens [12]): 100; Ratio IC50 (Homo sapiens [13]): 100
2 | CC(C)(C)NS(=O)(=O)c1cncc(-c2ccc3nc(N)nn3c2)c1 | Non-toxic | Non-toxic | Non-toxic | Not Active | Non-toxic | Not Active | Not Active | Not Active | permeable | 53 | 9 (≈ 26 µM) | Non-toxic | Not Active | Non-toxic | Not Active | half-life [15]: > 45 min; half-life [16]: > 45 min; bioavailability [17]: 88%; IC50 [18]: 2000 nM; clearance [19]: 11.5 mL/min/kg; half-life [20]: > 45 min
